Measured values: patent US20090220621A1, “Pharmaceutical compositions of a non-enteric coated proton pump inhibitor with a carbonate salt and bicarbonate salt combination” (priority 2000, published 2009)
Where “and” joins values, the source holds several entries; their conditions need not be identical. Identical values can stand only once.

Tests used:
Assay type in all cases: physicochemical
[1] = Gas and CO2 generated by neutralization of simulated gastric fluid (Orsat apparatus, standard CO2 assay)
Text: To quantify the gas produced by the neutralization of simulated gastric fluid ([…]) by carbicarb and by sodium bicarbonate in vitro, a standard CO2 assay technique was utilized (see USP 24-NF 19 Beta, The United States Pharmacopeia 2000, p. 306)
(§1) Aqueous solutions to be tested were made up from starting materials sodium carbonate, (anhydrous, available from Mallinckrodt) and sodium bicarbonate (available from Mallinckrodt). An 8.4% sodium bicarbonate solution and an 8.4% carbicarb solution (containing equimolar amounts of sodium bicarbonate and sodium carbonate) were tested as follows.
The specimen gas was generated by reacting either 450 mL simulated gastric fluid (SGF) with 50 mL of the carbicarb solution; or by reacting 45 ml of simulated gastric fluid with 5 ml of sodium bicarbonate solution in a 500 mL Erlenmeyer flask.
To make Simulated Gastric Fluid (SGF) 1 g sodium chloride was transferred to a 500-mL volumetric flask. After adding 1.6 g pepsin, 25 mL 2 N hydrochloric acid was added and swirled to mix. The resultant solution could then be diluted to the appropriate volume with water.
The amount of gas generated in a twenty-minute time period was measured in an Orsat Glass Vapor Absorption Apparatus, by the standard assay technique. Two tests were run for each solution. The volume of CO2 generated was calculated from the difference in the initial volume of gas produced (ml) and the final volume of gas remaining (ml).

[2] = Titration of simulated gastric fluid with acid neutralizer solution (gastric acid neutralizing capacity); details: 50 mL SGF
Experimental: To determine and compare the gastric acid neutralizing capacity of sodium bicarbonate solution to carbicarb solution, the following experiment was performed.
as §1
50 mL simulated gastric fluid (SGF, prepared according to the procedure described in Example 1) was pipetted into an Erlenmeyer flask. Four drops of methyl red, then four drops of phenolphthalein were then added to the flask. The pH of solution was monitored with a pH electrode. The solution to be tested was added to a 5-mL buret. The gastric media in the flask was then titrated with the test solution to an endpoint within 0.2 pH units of pH 6.5 (as indicated by the color change and pH reading). Then, titration was resumed, to an endpoint within 0.2 pH units of pH 8.0 (as indicated by the color change and pH reading).

[3] = Stability of lansoprazole in simulated gastric fluid with and without carbicarb (chromatographic assay); details: for % labeled amount of lansoprazole remaining: Sample in water; for % of the drug degraded: at 60 minutes in SGF
Experimental: Lansoprazole degrades in acid and is stable in base. This study was performed to determine 1) how quickly lansoprazole degrades in simulated gastric fluid (SGF); and 2) whether a high pH-buffering agent (carbicarb which is an equimolar mixture of sodium carbonate and sodium bicarbonate) could be used to retard the degradation of lansoprazole in SGF. All the experiments were conducted at room temperature (22° C.±2° C.).
The PPI test sample included lansoprazole (30 mg); mannitol (60 mg), meglumine (30 mg) and sodium hydroxide (3 mg).
Then 5.0 mL 2 N sodium hydroxide solution was added to the 0-minutes beaker with mixing. To each of the 5 remaining beakers, 10.0 mL of 8.4% carbicarb solution was added and stirred to mix. At the appropriate time interval (corresponding to the individual beaker numbers), 5.0 mL 2 N sodium hydroxide solution was added to stop the reaction. A portion of the resulting solution was diluted with pH 10 diluent. 10 μL of the resulting solution was then injected into the chromatographic system for assay.
Granular formulations of lansoprazole, including carbicarb were also made and tested. The stability of the granular formulations was tested according to the procedure of Example 3. The granular formulations of lansoprazole for this example were prepared as follows.
The coherent mass containing lansoprazole, carbicarb, lactose and sucrose solution was prepared as described above, in Example 3. This coherent mass was passed through a 20-mesh screen and the resulting granules were dried at 50° C. for 12 hours. Granules containing 30-mg lansoprazole were transferred to an amber color container along with and an equal weight of flavor granules. 10 ml of water ((HPLC grade, Fisher Scientific, Pittsburgh, Pa.) was added to the container with gentle shaking to reconstitute the suspension. The resulting suspension of lansoprazole was tested for stability in simulated gastric fluid as described earlier in Experiment 3.

[4] = 450 mL SGF and 50 mL test solution, ten times the 45 mL/5 mL values

Row | Volume of CO2 ([1]; 45 mL SGF and 5 mL test solution, initial minus residual gas volume) | Initial Gas Volume [1, 4] | Volume of CO2 [1, 4] | Volume of Acid Neutralizer Solution Required ([2]; pH after adding neutralizer 7.0) [mL] | Volume of Acid Neutralizer Solution Required ([2]; pH after adding neutralizer 8.0) [mL] | Volume of Acid Neutralizer Solution Required ([2]; pH of simulated gastric fluid after adding neutralizer 1.2) [mL] | % labeled amount of lansoprazole remaining ([3]; time in SGF 30 minutes) [%] | % labeled amount of lansoprazole remaining ([3]; time in SGF 45 minutes) [%] | % labeled amount of lansoprazole remaining ([3]; time in SGF 60 minutes) [%] | % of the drug degraded ([3]; constituted with carbicarb solution) [%] | % of the drug degraded ([3]; reconstituted with water) [%] | Compound
1 | 2.9 mL and 5.3 mL | 930.0 mL and 820.0 mL | 29.0 mL and 53.0 mL | 5.00 | 6.20 | 0 |  |  |  |  |  | O=C([O-])O.[Na+] [8.4% sodium bicarbonate solution, sodium bicarbonate]
2 |  |  |  |  |  |  | 4.1 | 2.7 | 2.0 | 3.5 | 98 | Cc1c(OCC(F)(F)F)ccnc1C[S+]([O-])c1nc2ccccc2[nH]1 (centres unmarked) [lansoprazole]
